Results reported in patent US12565467B2, “Compounds, compositions, and methods for the treatment of inflammatory, degenerative, and neurodegenerative diseases” (Board of Supervisors of Louisiana State University and …, priority 2015, dated 2026).
Entries after “also recorded” stand apart in the source; their conditions may differ.

Experiments:
[1] = system: Bim; experiment: Bim protein in ARPE-19 cells under oxidative stress; format: cell-based, human; settings: ARPE-19 cells under stress
Excerpt: (§1) FIG. 7. (A) VLC-PUFA and ELV1 and ELV2 compounds mediated downregulation of Bim in ARPE-19 cells under stress. Bim, another class of Bcl2 family, has been tested like Bid in this figure to confirm our previous results. VLC-PUFA and elovanoids protected against the upregulation of Bim by OS, similar to Bid, in RPE cells under stress. (B) VLC-PUFA and elovanoids mediated effect on Bim downregulation in ARPE-19 cells under stress.
as §1, with “7—A)” for “7. (A)”, “[…]” for “downregulation”, “protected” for “protected against”

[2] = system: human retinal pigment epithelial cells (ARPE-19, HRPE); experiment: Formation of hydroxylated derivatives from VLC-PUFA in human RPE cells in culture (LC-MS/MS); format: in vitro ADME; settings: 34:6n3 100 nM, 12-16 hours, culture media
Procedure: FIG. 2. Evidence of cell-derived hydroxylated derivatives (29-hydroxy-34:6 and 22,29-dihydroxy-34:6) derived from the omega-3 VLC-PUFA 34:6n3 (C34:6) from human retinal pigment epithelial cells in culture. Human retinal pigment epithelial cells (spontaneously transformed ARPE-19 cells) or primary human retinal pigment epithelial cells (HRPE) were incubated with 34:6n3 (100 nM) during 12-16 hours and then the culture media collected lipid extracted and run in LC-MS/MS.
Evidence for the formation of hydroxylated VLC-PUFA in cells as postulated in FIG. 1, and as documented in FIG. 2. […] The preferred structures of 2 are 2a and 2b, while the preferred structures of 3 are 3a and 3b. […] The cell-derived hydroxylated derivatives 2 and 3 were obtained from human retinal pigment epithelial cells in culture. Human retinal pigment epithelial cells (spontaneously transformed ARPE-19 cells) or primary human retinal pigment epithelial cells (HRPE) were incubated with 34:6n3 (100 nM) during 12-16 hours and then the culture media collected lipid extracted and run in LC-MS/MS. […] The stereochemistry of the mono- and di-hydroxy compounds were not possible to determine, but they were presumed to be the same as those derived from DHA.

With CC/C=C\C[C@H](O)\C=C/C=C/C=C/[C@H](O)C/C=C\C/C=C\CCCCCCCCCCCCCCC(=O)O [ELV2, (16Z,19Z,22R,23E,25E,27Z,29S,31Z)-22,29-dihydroxytetratriaconta-16,19,23,25,27,31-hexaenoic acid] the “effect on Bim upregulation by OS (FIG. 7)” value [1] was “potent downregulation”.
In the case of CC/C=C\C/C=C\C/C=C\C/C=C\C/C=C\C/C=C\CCCCCCCCCCCCCCC(=O)O [C34:6], the “conversion to mono- and di-hydroxylated derivatives in cell culture (FIG. 2)” value [2] is reported as “yielded a hydroxylated product; also recorded: could be detected”.
